From patent US20190070165A1, “N-HYDROXYISOQUINOLINEDIONE INHIBITORS OF HBV REPLICATION” (Saint Louis University, priority 2016, published 2019)

Molecular target: T1, HBV polymerase (Hepatitis B virus genotype D subtype ayw, UniProt P03156)
T1 construct: expressed in transfected cells; host or cells: HepDES19 (HepG2 with a stably transfected HBV genotype D genome)
Assay: Endogenous polymerase reaction (EPR) in isolated HBV capsids
Assay type: biochemical
Conditions: inhibitors at 4× EC50; #138 and #211 at 30 μM; ddTTP 5.7 μM
Description: Anti-RNaseH activity is implied from their preferential suppression of the plus-polarity DNA strand (FIG. 4), but strand-preferential inhibition could also result from inhibiting the polymerase also. This is because positive-polarity DNA synthesis can be suppressed both directly by inhibiting the RNaseH enzyme and indirectly by reducing the amount of negative-polarity DNA strand that templates the positive-polarity strand, whereas minus-polarity DNA synthesis can only be suppressed by chain termination. To determine if the efficacy of these compounds was due to inhibition of the HBV polymerase, capsids isolated from HepDES19 cells were tested in the endogenous polymerase reaction (EPR) to measure DNA chain elongation by the HBV polymerase along the HBV nucleic acids within the capsids. Isolated HBV capsids were supplied with dATP, dTTP, dGTP, and [α^32P]dCTP in the presence of inhibitors at 4× their EC50 values; negative control compounds #138 and #211 were tested at 30 μM. 1% DMSO was used as a vehicle control, and ddTTP (5.7 μM) was the positive control polymerase inhibitor. Samples were incubated at 37° C. for 7 hours to permit DNA chain elongation by the encapsidated HBV polymerase. Nucleic acids were purified, resolved on a 0.8% agarose gel and detected by autoradiography. DNAs from HBV capsids treated with the compounds incorporated ^32P similarly to DMSO control (FIG. 5).
HBV cores were harvested from HepDES19 cells grown in the absence of tetracycline for 20 days using polyethylene glycol 8000 precipitation (Guo et al., 2003). Cells were rinsed in PBS and lysed in 1 mL core lysis buffer with 2 μL of protease inhibitor cocktail (Sigma) at room temperature for 10 minutes. Cell lysates were collected and 10 mM CaCl2) was added. The lysate was centrifuged for 5 minutes at 21,000 g, the supernatant was incubated with 150 U of micrococcal nuclease at 37° C. for 60 minutes, and then 27 mM EDTA was added to stop the reaction. 333 μL of 26% PEG8000 was added to precipitate core particles and incubated at 4° C. for 6 hours. The samples were centrifuged at 21,000 g for 20 minutes at 4° C. The supernatant was removed and the pellet was resuspended in 250 μL of 10 mM Tris buffer pH 7.5. Cores were stored at −80° C.
The endogenous polymerase reaction was done using a modified procedure from (Nguyen et al., 2007). […] These nucleic acids were dissolved in tris-EDTA buffer, resolved on a 0.8% agarose gel, transferred to a HyBondN membrane, and detected by autoradiography. Band intensities for each experiment were quantified using Image J and percent inhibition was calculated relative to the DMSO-treated reactions. Statistical significance of variation in band intensities was evaluated using a one-way ANOVA with a Dunnett post hoc analysis, with p=0.05 indicating significance.

T1 sequence (P03156 whole entry): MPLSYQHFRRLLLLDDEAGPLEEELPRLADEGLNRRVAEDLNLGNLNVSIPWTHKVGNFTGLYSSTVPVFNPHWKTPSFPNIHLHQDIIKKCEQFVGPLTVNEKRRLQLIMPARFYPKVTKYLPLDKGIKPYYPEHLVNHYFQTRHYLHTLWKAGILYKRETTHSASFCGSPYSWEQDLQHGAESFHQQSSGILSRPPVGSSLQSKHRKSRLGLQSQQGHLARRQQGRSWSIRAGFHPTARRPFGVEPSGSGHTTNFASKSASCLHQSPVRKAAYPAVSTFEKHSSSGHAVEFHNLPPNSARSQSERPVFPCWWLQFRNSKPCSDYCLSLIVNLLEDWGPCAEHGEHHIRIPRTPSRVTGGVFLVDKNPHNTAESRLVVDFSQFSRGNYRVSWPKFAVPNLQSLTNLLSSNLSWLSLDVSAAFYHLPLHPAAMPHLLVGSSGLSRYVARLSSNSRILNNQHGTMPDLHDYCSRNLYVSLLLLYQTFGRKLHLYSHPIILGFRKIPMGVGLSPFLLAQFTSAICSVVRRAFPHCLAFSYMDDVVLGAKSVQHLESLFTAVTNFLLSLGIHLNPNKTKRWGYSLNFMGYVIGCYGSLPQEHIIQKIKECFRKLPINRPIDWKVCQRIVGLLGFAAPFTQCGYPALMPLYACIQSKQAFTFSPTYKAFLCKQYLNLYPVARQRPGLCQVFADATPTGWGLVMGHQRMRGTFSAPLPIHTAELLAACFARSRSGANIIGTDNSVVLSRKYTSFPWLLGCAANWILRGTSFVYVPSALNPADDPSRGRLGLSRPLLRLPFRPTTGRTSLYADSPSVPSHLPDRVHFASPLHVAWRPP

## O=C1c2ccccc2C(=O)N1O [Compound 138]
  effect on 32P incorporation in EPR: None of the HBV inhibitors or the two negative control compounds (#138 and 211) significantly altered incorporation
